Source: patent US20230242885A1, “METHOD OF PRODUCING CARDIOMYOCYTE POPULATION, METHOD OF PROLIFERATING CARDIOMYOCYTES, CARDIOMYOCYTE POPULATION, TRANSPLANTATION MATERIAL, MULTINUCLEATED CARDIOMYOCYTE, AND KIT FOR PROLIFERATING CARDIOMYOCYTES” (Myoridge Co. Ltd., priority 2020, published 2023)
Each block holds one compound with its values, some of them ahead of it.

Experiments:
[1] = tested on: cardiomyocytes induced from human iPS cells (253G1 strain); test: Proliferation culture of cardiomyocytes with WNT signal activator CHIR99021, serial subculture (Example 2); assay type: cell-based; settings: for cTnT positive rate (cardiomyocyte purity): CHIR99021 added (1 to 5 μM); for proliferation rate compared with no CHIR99021: CHIR99021 1 to 5 μM; for total cardiomyocyte proliferation: 2.0×10^5 cells/cm^2
Description: A “ratio of multinucleated cardiomyocytes” was determined from a percentage of multinucleated cardiomyocytes in 10,000 cardiomyocytes.
Thereafter, the culture medium was replaced every 3 to 4 days, and culturing was performed for 2 weeks (a first serial subculture).
For the cells obtained after each serial subculture, “cardiomyocyte purity”, “cardiomyocyte proliferation rate”, “ratio of multinucleated cardiomyocytes”, and “average maximum length of multinucleated cardiomyocytes” were determined according to the same procedure as in Example 1.

[2] = tested on: cardiomyocyte population (third serial subculture); test: Drug responsiveness test by calcium imaging; assay type: cell-based, human; settings: terfenadine 300 to 900 nM; calcium signal 10 minutes after addition

Compound: Cc1cnc(-c2cnc(NCCNc3ccc(C#N)cn3)nc2-c2ccc(Cl)cc2Cl)[nH]1 [CHIR99021, 6-[2-[[4-(2,4-dichlorophenyl)-5-(5-methyl-1H-imidazol-2-yl)pyrimidin-2-yl]amino]ethylamino]pyridine-3-carbonitrile]
cTnT positive rate (cardiomyocyte purity) ([1]; after the first serial subculture, before culturing 90 to 96%): ≥ 90%
cTnT positive rate (cardiomyocyte purity) ([1]; after the second serial subculture): ≥ 90%
concentration of CHIR99021 at which the cardiomyocyte proliferation rate was the highest ([1]; first and second serial subculture, tested 1, 2, 3, 5 μM): 3 µM
cardiomyocyte proliferation rate ([1]; first serial subculture (2 weeks), seeding density 2.0×10^5 cells/cm^2, CHIR99021 3 μM): 4.5 fold
proliferation rate compared with no CHIR99021 ([1]; first serial subculture): higher proliferation rates
total cardiomyocyte proliferation ([1]; in total after the second serial subculture, CHIR99021 3 μM): 12.6 fold
total cardiomyocyte proliferation ([1]; in total after the third to fourth serial subcultures, CHIR99021 3 μM): 22.7 fold
proliferation rate compared with no CHIR99021 ([1]; second serial subculture): higher proliferation rates

early afterdepolarization (EAD) response [2]: detected
Compound: CC(C)(C)c1ccc(C(O)CCCN2CCC(C(O)(c3ccccc3)c3ccccc3)CC2)cc1 (stereo not drawn) [terfenadine]
